In patent publication US11052065B2, “Compositions and methods for treating cancer with a combination of programmed death receptor (PD-1) antibodies and a CXCR2 antagonist” (Merck Sharp & Dohme Corp., priority 2017, dated 2021):

System: B16-F10 melanoma tumor
Experiment: Anti-tumor efficacy in mouse B16-F10 melanoma syngeneic tumor model
Type: in vivo, C57Bl/6 mice
Details: single agent treatment groups (navarixin 300 mg/kg bid + isotype control; anti-PD-1 10 mg/kg + vehicle); 12 mice per group; FIGS. 3 and 4
Protocol: The combination anti-tumor efficacy of a CXCR2 antagonist and anti-mouse PD-1 antibody muDX400 was assessed in the B16-F10 melanoma tumor model, syngeneic to the C57Bl/6 strain. This experiment compared the anti-tumor response of tumor-bearing mice to treatment with one of three regimens: monotherapy with a murine anti-mouse PD-1 monoclonal antibody (Anti-PD-1), monotherapy with a CXCR2 antagonist (navarixin) and combination therapy with these two agents administered concurrently.
Tumor-bearing mice for this study were initiated by implanting 0.4×10^6 log-phase and sub-confluent B16-F10 cells on the right lower dorsal flank of 7-8 week old female C57Bl/6 mice with an average body weight of 18 grams. When the mean tumor volume in these mice reached ˜70 cubic mm (50 mm^3-80 mm^3), the tumor-bearing mice were randomized to 5 treatment groups of 12 mice per group:
(1) Isotype Control+Vehicle;
(2) Isotype Control+Navarixin (bid);
(4) Anti-PD-1+Navarixin (bid) and;
(5) Anti-PD-1+Navarixin (qd).
The monoclonal antibody against murine PD-1 was of the isotype IgG1. The isotype control was a mouse monoclonal antibody specific for adenoviral hexon 25 and was of the isotype IgG1. […] The tumor volume was assessed using Vernier calipers.

SMILES: CC[C@@H](Nc1c(Nc2cccc(C(=O)N(C)C)c2O)c(=O)c1=O)c1ccc(C)o1 [navarixin, 2-hydroxy-N,N-dimethyl-3-{2-[[(R)-1-(5-methylfuran-2-yl)propyl]amino]-3,4-dioxocyclobut-1-enylamino}benzamide]
- complete and partial regressions: not observed
